Assay results from article PMC8957246, “Synthesis and diverse biological activity profile of triethylammonium isatin-3-hydrazones” (ADMET & DMPK, 2022).
Where two headings read alike, the source gives them in different places.

Experiments:
Assay type in all cases: cell-based
[1] = system: Candida albicans ATCC 10231; experiment: Antimicrobial activity, serial dilution (MIC/MBC), Ca; details: ATCC10231
Protocol: The antimicrobial activity of the test compounds was determined by the serial dilution technique in Muller Hinton Broth 2 and in Sabouradu broth for fungi. The cultures used for testing included Gram-positive bacteria: Staphylococcus aureus ATCC 6538P FDA 209P, Bacillus cereus ATCC 10702 NCTC 8035, Enterococcus faecalis ATCC 29212; Gram-negative bacteria: Escherichia coli ATCC 25922, Pseudomonas aeruginosa ATCC 9027, and fungi: Trichophyton mentagrophytes var. gypseum 1773, and Candida albicans ATCC 10231; methicillin-resistant strains of S. aureus (MRSA) was obtained from hospital patients with chronic tonsillitis in the Republican Clinical Hospital (Kazan, Russia). The bacterial load was 3.0 × 10^5 cfu/ml. The fungi load was 2.0 × 10^3 cfu/ml. The results were recorded every 24 h for 5-7 days. Cultures were incubated at 37 °C. The experiment was repeated three times. […] The minimum inhibitory concentration (MIC) was defined as the minimum concentration of a compound that inhibits the growth of the corresponding test microorganism. The growth of bacteria, as well as the absence of the growth due to the bacteriostatic action of compounds, were recorded.
Synthesized compounds were further evaluated for antimicrobial activity against test microorganisms: Staphylococcus aureus ATCC 209p (Sa), Bacillus cereus ATCC 8035 (Bc), Escherichia coli CDC F-50 (Ec), Enterococcus faecalis (Ef), Pseudomonas aeruginosa ATCC 9027, Aspergillus niger BKMF-1119, Trichophyton mentagrophytes var. gypseum 1773, and Candida albicans 855-653 including methicillin-resistant strains of S. aureus (MRSA 1 and MRSA 2). The minimum inhibitory (MIC) and minimum bactericidal (MBC) concentrations of ammonium salts were determined against these pathogens (Table 1). Due to the lack of activity of compounds 3a-g against Gram-negative bacterial strains and some fungi, the corresponding data are not shown.

Micrococcus luteus B-109 = experiment: Bactericidal activity, agar diffusion, M. luteus; details: Micrococcus luteus, B109, 2 mM/L
Excerpt: (§1) Plant pathogenic bacterial strains Micrococcus luteus B-109, Pectobacterium atrosepticum 1043, Pectobacterium carotovorum subsp. carotovorum MI, Pseudomonas fluorescens EL-2.1, and Xanthomonas campestris B-610 and fungal strain Fusarium oxysporum IBPPM 543 were obtained from the specialized scientific culture collection of IBPPM RAS (WFCC no. 975, WDCM no. 1021) (CM IBPPM). Pathogenic fungus Phytophthora cactorum VKM F-985 provided by the All-Russian Collection of Microorganisms (VKM) and deposited at A.E. Favorsky Irkutsk Institute of Chemistry, SB RAS, was also used as test organism. Bacteria M. luteus, P. carotovorum subsp. carotovorum, P. atrosepticum, and Ps. fluorescens were grown in meat-peptone medium (BP), and X. campestris was grown in the medium with glucose, yeast extract, and calcium carbonate (GYCa). Solid media contained Bacto agar (18 g/L); pH was adjusted to 7.2-7.4. All bacterial cultures were grown at 28°C. The mycelial cultures of F. oxysporum and P. cactorum were grown on a glucose-peptone-yeast (GPY) nutrient medium at 27 °C. For inoculum preparation, both fungal strains were initially grown on the agar GPY in Petri dishes and then transferred into the seed medium by punching out 5 mm of the agar plate culture with a self-designed cutter.
(§2) Antibacterial and antifungal activities of the compounds were explored using the agar diffusion method and the technique of a phytopathogen radial growth inhibition. Method of diffusion in agar (measuring the diameter of growth inhibition zones) was used for determining the bactericidal activity. The 6-mm wells were made in ager medium (GYCa for Xanthomonas campestris or BP for other bacteria). Bacterial suspensions were distributed over the agar surface, and the tested compound's solution (150 μl) was added to each well. The width of growth inhibition zones around the wells was determined after incubation for 36-40 h.
(§3) The solutions of tested compounds were prepared with a concentration of 2 mmol/l (stock solution). For comparison, test compounds were also commonly applied disinfecting agents and antibiotics.

[2] = system: Pseudomonas fluorescens EL-2.1; experiment: Bactericidal activity, agar diffusion, Ps. fluorescens; details: Pseudomonas fluorescens, EL2.1, 2 mM/L
Excerpt: as §1, §2, §3

[3] = system: Fusarium oxysporum IBPPM 543; experiment: Fungicidal activity, radial growth inhibition, F. oxysporum; details: for EC50: Fusarium oxysporum, IBPPM543, 168 h, day 7, EC50 = 50C/I, read-out: EC50, μg/mL at day 7
Excerpt: as §1
For the fungicidal activity analysis, radial growth (colony diameters) of the fungi on a solid medium in the absence and in the presence of the compounds 3a,c-g solutions at various concentrations were compared. The method consisted of the following: sterile, melted and then cooled to about 60°C GPY agar medium (20.0 ml) was mixed with the precisely measured volumes of the solutions under question, and poured into a sterile Petri dish (90 mm i.d.). After solidification of GPY agar, the media were inoculated by the fungus using 10-day-old cultures of F. oxysporum or P. cactorum. The inoculation was done by transferring a 5-mm (i.d.) GPY-agar block covered with mycelium to the center of the Petri dish followed by incubation in a thermostat at 27°C. The fungicidal effect was scored by the size of mycelium colony on a Petri dish compared to the control without fungicidal admixtures to GPY agar. Each treatment was performed in at least four replicates in two independent experiments. The observation period ended when the control Petri dish was filled with mycelium (usually after 12 days). The inhibition of the phytopathogen colony growth by the compounds 3a,c-g or fludioxonil solutions was calculated as a percentage by which the mycelium radial propagation was decreased compared to the unaffected control, the latter was taken as 100 % of growth (or zero percent of inhibition). The EC50 value was calculated as the compound concentration at which the radial growth of the fungus colony was decreased by 50 % relative to the non-fungicidal control, according to the formula EC50 = 50C/I based on the approach developed e.g., in [34, 35].
as §3

[4] = 150 μl per well, 36-40 h, read-out: width of the inhibition zone
[5] = read-out: Inhibition zone width (mm), not less
[6] = C 6.30 μg/mL, age of the fungus 3 days
[7] = C 6.30 μg/mL, age of the fungus 5 days
[8] = C 6.30 μg/mL, age of the fungus 7 days
[9] = C 6.30 μg/mL, age of the fungus 9 days
[10] = C 12.60 μg/mL, age of the fungus 3 days
[11] = C 12.60 μg/mL, age of the fungus 5 days
[12] = C 12.60 μg/mL, age of the fungus 7 days
[13] = C 12.60 μg/mL, age of the fungus 9 days
[14] = C 25.20 μg/mL, age of the fungus 3 days
[15] = C 25.20 μg/mL, age of the fungus 5 days
[16] = C 25.20 μg/mL, age of the fungus 7 days
[17] = C 25.20 μg/mL, age of the fungus 9 days
[18] = C 37.80 μg/mL, age of the fungus 3 days
[19] = C 37.80 μg/mL, age of the fungus 5 days
[20] = C 37.80 μg/mL, age of the fungus 7 days
[21] = C 37.80 μg/mL, age of the fungus 9 days

| Compound | MBC [1] [µM] | MIC [1] [µM] | zone of inhibition at 2000 µM (Micrococcus luteus B-109; [4]) [mm] | zone of inhibition at 2000 µM (Micrococcus luteus B-109; [5]) [mm] | zone of inhibition at 2000 µM [2, 4] [mm] | zone of inhibition at 2000 µM [2, 5] [mm] | EC50 [3] [µg/mL] | Inhibition value, I (%) [3, 6] [%] | Inhibition value, I (%) [3, 7] [%] | Inhibition value, I (%) [3, 8] [%] | Inhibition value, I (%) [3, 9] [%] | Inhibition value, I (%) [3, 10] [%] | Inhibition value, I (%) [3, 11] [%] | Inhibition value, I (%) [3, 12] [%] | Inhibition value, I (%) [3, 13] [%] | Inhibition value, I (%) [3, 14] [%] | Inhibition value, I (%) [3, 15] [%] | Inhibition value, I (%) [3, 16] [%] | Inhibition value, I (%) [3, 17] [%] | Inhibition value, I (%) [3, 18] [%] | other results |
| --- | --- | --- | --- | --- | --- | --- | --- | --- | --- | --- | --- | --- | --- | --- | --- | --- | --- | --- | --- | --- | --- |
| CC[N+](CC)(CC)CC(=O)N/N=C1\C(=O)N(Cc2cc(C(C)(C)C)c(O)c(C(C)(C)C)c2)c2cccc(Br)c21 [Compound 3e, 2-(2-(1-(3,5-Di-tert-butyl-4-hydroxybenzyl)-4-bromo-2-oxoindolin-3-ylidene)hydrazinyl)-N,N,N-triethyl-2-oxoethanammonium bromide] | > 500 | > 500 | 13 | ≥ 13 | 9 | ≥ 9 | 17.9 |  |  |  |  |  |  |  |  |  |  |  |  |  | Inhibition value, I (%) ([3]; C 6.81 μg/mL, age of the fungus 3 days): 11%; Inhibition value, I (%) ([3]; C 6.81 μg/mL, age of the fungus 5 days): 13%; Inhibition value, I (%) ([3]; C 6.81 μg/mL, age of the fungus 7 days): 19%; Inhibition value, I (%) ([3]; C 6.81 μg/mL, age of the fungus 9 days): 6%; Inhibition value, I (%) ([3]; C 13.62 μg/mL, age of the fungus 3 days): 14%; Inhibition value, I (%) ([3]; C 13.62 μg/mL, age of the fungus 5 days): 18%; Inhibition value, I (%) ([3]; C 13.62 μg/mL, age of the fungus 7 days): 22%; Inhibition value, I (%) ([3]; C 13.62 μg/mL, age of the fungus 9 days): 9%; Inhibition value, I (%) ([3]; C 27.24 μg/mL, age of the fungus 3 days): 19%; Inhibition value, I (%) ([3]; C 27.24 μg/mL, age of the fungus 5 days): 19%; Inhibition value, I (%) ([3]; C 27.24 μg/mL, age of the fungus 7 days): 25%; Inhibition value, I (%) ([3]; C 27.24 μg/mL, age of the fungus 9 days): 20%; Inhibition value, I (%) ([3]; C 40.86 μg/mL, age of the fungus 3 days): 40%; Inhibition value, I (%) ([3]; C 40.86 μg/mL, age of the fungus 5 days): 37%; Inhibition value, I (%) ([3]; C 40.86 μg/mL, age of the fungus 7 days): 43%; Inhibition value, I (%) ([3]; C 40.86 μg/mL, age of the fungus 9 days): 29% |
| CC[N+](CC)(CC)CC(=O)N/N=C1\C(=O)N(Cc2cc(C(C)(C)C)c(O)c(C(C)(C)C)c2)c2c1ccc(C)c2C [Compound 3d, 2-(2-(1-(3,5-Di-tert-butyl-4-hydroxybenzyl)-6,7-dimethyl-2-oxoindolin-3-ylidene)hydrazinyl)-N,N,N-triethyl-2-oxoethanammonium bromide] | > 500 | 198 ± 15.5 | 8 | ≥ 8 | 9 | ≥ 9 | 48.5 | 0 | 5 | 5 | 0 | 8 | 12 | 13 | 2 | 17 | 15 | 20 | 8 | 22 | Inhibition value, I (%) [3, 19]: 18%; Inhibition value, I (%) [3, 20]: 24%; Inhibition value, I (%) [3, 21]: 9% |
| CCc1cccc2c1N(Cc1cc(C(C)(C)C)c(O)c(C(C)(C)C)c1)C(=O)/C2=N\NC(=O)C[N+](CC)(CC)CC [Compound 3c, 2-(2-(1-(3,5-Di-tert-butyl-4-hydroxybenzyl)-7-ethyl-2-oxoindolin-3-ylidene)hydrazinyl)-N,N,N-triethyl-2-oxoethanammonium bromide] | > 500 | > 500 | 10.5 | ≥ 10 | 8 | ≥ 8 | 10.5 | 2 | 11 | 30 | 17 | 24 | 26 | 33 | 23 | 31 | 33 | 47 | 27 | 44 | Inhibition value, I (%) [3, 19]: 42%; Inhibition value, I (%) [3, 20]: 59%; Inhibition value, I (%) [3, 21]: 38% |
